# Laboratory results reported in article PMC2918699 (European journal of medicinal chemistry, 2010).
# Key:
# [1] = GC-MS analysis of stilbenes in mice serum; format: in vivo, SCID mice; details: GC-MS retention time and mass spectrum compared to standards
# HT-29 xenograft = HT-29 xenograft tumor growth in SCID mice; format: in vivo; details: 10 mg/kg i.p. once daily, after 3 weeks
# yeast = yeast assays, mimics calorie restriction by stimulating Sir2; cited from earlier work
# PCNA = PCNA in HT-29 tumors by western blotting and immunohistochemistry; format: in vivo, SCID mice; details: western blotting and immunohistochemistry of HT-29 tumors
# p27 = p27 in HT-29 tumors by western blotting and immunohistochemistry; format: in vivo, SCID mice; details: western blotting and immunohistochemistry of HT-29 tumors
Structure (SMILES),Configuration (cis/trans) found in the serum [1],Tumor weight decrease compared to the control (HT-29 xenograft) [%],other results
"COc1ccc(/C=C\c2cc(OC)cc(OC)c2)cc1 [Compound 10, (Z)-1,3-dimethoxy-5-(4-methoxystyryl)benzene]",retained their configurations,15,–
"Oc1ccc(/C=C/c2cc(O)cc(O)c2)cc1 [Compound 17, Resveratrol]",–,–,extended lifespan (yeast): 70%
"COc1cc(/C=C\c2ccc(N)cc2)cc(OC)c1 [Compound 4, (Z)-4-(3,5-dimethoxystyryl)aniline]",isomerized to 3,–,–
"COc1ccc(/C=C/c2cc(OC)cc(OC)c2)cc1 [Compound 9, (E)-1,3-dimethoxy-5-(4-methoxystyryl)benzene]",retained their configurations,21,Tumor volume lower compared to the control (HT-29 xenograft): 45%; PCNA levels in tumors (PCNA): lowered; p27 levels in tumors (p27): increased

# The next lines start with results.
Configuration (cis/trans) found in the serum [1],Structure (SMILES),Tumor weight decrease compared to the control (HT-29 xenograft) [%],other results
retained their configurations,"COC(=O)c1ccc(/C=C/c2cc(OC)cc(OC)c2)cc1 [Compound 5, (E)-Methyl-4-(3,5-dimethoxystyryl)benzoate]",–,–
retained their configurations,"COC(=O)c1ccc(/C=C\c2cc(OC)cc(OC)c2)cc1 [Compound 6, (Z)- Methyl 4-(3,5-dimethoxystyryl)benzoate]",–,–
